This series in a line: Determination of the thickener performance in mixture A. Type of series: physicochemical. To be noted: for Viscosity: 1% by weight added to mixture A (15% by weight in water, sodium laureth-2 sulfate:cocobetain 8:2), mixture A alone 135; for thickener performance (in words): 1% by weight in mixture A, summary of Table 1. From the text:
Using Genapol® LRO (sodium laureth-2 sulfate, 27% by weight in water) and Genagen® KB (cocobetain, 30% by weight in water) and additionally water, a 15% by weight mixture in water comprising the two surfactants in a weight ratio of 8:2 (hereinbelow referred to as “mixture A”) is obtained.

Take `O[C@@H]1CO[C@H]2[C@@H]1OC[C@@H]2O` [isosorbide]: the Viscosity turned out to be 160 mPa · s and the “thickener performance (in words)” value is reported as “not worth mentioning”.

Consider isosorbide dicaprylate, for which the Viscosity is on record as 2390 mPa · s and the “thickener performance (in words)” value is given as “significant thickening”.

Values taken from patent US9968536B2, “Composition comprising isosorbide monoesters and isosorbide diesters” (Clariant International Ltd., priority 2011, dated 2018).
